Experimental data as given in the C3SDB collision cross section collection.
Values joined by “and” are separate entries in the source; they are usually repeats but may differ in a detail not shown here. Equal entries are not always repeated.

Experiments:
[1] = instrument: DT, stepped-field
[2] = [M+H]+; instrument: TW; Major Mix IMS/Tof Calibration Kit (Waters)

OCC1OC(OC2C(CO)OC(OC3C(CO)OC(OC4C(CO)OC(OC5C(CO)OC(OC6C(CO)OC(OC7C(CO)OC(OC8C(CO)OC(OC9C(CO)OC(OC%10C(CO)OC(O)C(O)C%10O)C(O)C9O)C(O)C8O)C(O)C7O)C(O)C6O)C(O)C5O)C(O)C4O)C(O)C3O)C(O)C2O)C(O)C(O)C1O (stereo not drawn) [(Hex)10]
collision cross section (N2) ([1]; [M+H-H2O]+): 383.4 Å² | collision cross section (N2) ([1]; [M+H]+): 365.1 Å² and 390.3 Å² | collision cross section (N2) ([1]; [M+Na]+): 365.1 Å² and 373.8 Å²

CC(C)C[C@H](NC(=O)[C@H](C)NC(=O)[C@H](CC(=O)O)NC(=O)[C@H](C)NC(=O)[C@H](C)N)C(=O)N[C@@H](CC(C)C)C(=O)N[C@@H](CC(C)C)C(=O)N[C@@H](CCCCN)C(=O)O [AADALLLK]
collision cross section (N2) ([1]; [M+H]+): 291.8 Å² and 277.8 Å²

CCC(C)[C@H](NC(=O)[C@H](CC(N)=O)NC(=O)[C@H](C)N)C(=O)N[C@@H](CC(=O)O)C(=O)N[C@H](C(=O)N[C@@H](CCCCN)C(=O)O)C(C)C (stereo partly drawn) [ANIDVK]
collision cross section (N2) ([1]; [M+H]+): 248.1 Å²

CC(C)C[C@H](NC(=O)[C@H](C)NC(=O)[C@@H](N)CCC(=O)O)C(=O)N[C@@H](CC(=O)O)C(=O)N[C@@H](Cc1ccccc1)C(=O)N[C@@H](Cc1ccccc1)C(=O)N[C@@H](C)C(=O)N[C@@H](CCCNC(=N)N)C(=O)O [EALDFFAR]
collision cross section (N2) ([1]; [M+H]+): 305.9 Å²

CC(C)C[C@H](NC(=O)[C@H](CCC(=O)O)NC(=O)[C@@H](N)CCC(=O)O)C(=O)N[C@@H](Cc1ccccc1)C(=O)N[C@@H](CCCNC(=N)N)C(=O)O [EELFR]
collision cross section (N2) ([1]; [M+H]+): 254.1 Å²

NCC(=O)N[C@@H](CCCN=C(N)N)C(=O)NCC(=O)N[C@@H](CC(=O)O)C(=O)N[C@@H](CO)C(=O)O [GRGDS]
collision cross section (N2) ([1]; [M+H]+): 205.9 Å² | collision cross section (N2) ([1]; [M+K]+): 210.4 Å² | collision cross section (N2) ([1]; [M+Na]+): 208.2 Å²

CC(C)[C@H](NC(=O)CN)C(=O)N[C@@H](Cc1ccccc1)C(=O)N[C@@H](CCCNC(=N)N)C(=O)O [GVFR]
collision cross section (N2) ([1]; [M+H]+): 214.8 Å²

CCCCCCCCCCCCCCCC(=O)N[C@@H](CO[C@@H]1O[C@H](CO)[C@@H](O)C(O)C1O)[C@H](O)CCCCCCCCCCCCCCC (stereo partly drawn) [GlcCer(34:0)]
collision cross section (N2) ([1]; [M+Na]+): 281.7 Å²

CCCCCCCCCCCCC=CC[C@@H](O)[C@H](CO[C@@H]1O[C@H](CO)[C@@H](O)C(O)C1O)NC(=O)CCCCCCCCCCCCCCCCCC (stereo partly drawn) [GlcCer(37:1)]
collision cross section (N2) ([1]; [M+Na]+): 286.8 Å²

CCCCCCCCCCCCCCCCCCCC(=O)N[C@@H](CO[C@@H]1O[C@H](CO)[C@@H](O)C(O)C1O)[C@H](O)CCCCCCCCCCCCCCC (stereo partly drawn) [GlcCer(38:0)]
collision cross section (N2) ([1]; [M+Na]+): 295.6 Å²

CCCCCCCCCCCCC=CC[C@@H](O)[C@H](CO[C@@H]1O[C@H](CO)[C@@H](O)C(O)C1O)NC(=O)CCCCCCCCCCCCCCCCCCC (stereo partly drawn) [GlcCer(38:1)]
collision cross section (N2) ([1]; [M+Na]+): 293.8 Å²

CCCCCCCCCCCCC=CC[C@@H](O)[C@H](CO[C@@H]1O[C@H](CO)[C@@H](O)C(O)C1O)NC(=O)CC=CCCCCCCCCCCCCCCCCCC (stereo partly drawn) [GlcCer(40:2)]
collision cross section (N2) ([1]; [M+Na]+): 297.1 Å²

CCCCCCCCCCCCC=CC[C@@H](O)[C@H](CO[C@@H]1O[C@H](CO)[C@@H](O)C(O)C1O)NC(=O)CC=CCCCCCCCCCCCCCCCCCCCCC (stereo partly drawn) [GlcCer(43:2)]
collision cross section (N2) ([1]; [M+Na]+): 307.8 Å²

CCCCCCCCCCCCC=CC[C@@H](O)[C@H](CO[C@@H]1O[C@H](CO)[C@@H](O)C(O)C1O)NC(=O)CC=CCCCCCCCCCCCCCCCCCCCCCC (stereo partly drawn) [GlcCer(44:2)]
collision cross section (N2) ([1]; [M+Na]+): 315.3 Å²

CCCCCCCCCCCCC=CC[C@@H](O)[C@H](CO[C@@H]1O[C@H](CO)[C@@H](O)C(O)C1O)NC(=O)CC=CCC=CCCCCCCCCCCCCCCCCCCC (stereo partly drawn) [GlcCer(44:3)]
collision cross section (N2) ([1]; [M+Na]+): 310.7 Å²

CC(C)C[C@H](NC(=O)[C@H](CC(=O)O)NC(=O)[C@H](C)NC(=O)[C@H](CC(C)C)NC(=O)[C@@H](N)Cc1c[nH]cn1)C(=O)N[C@@H](CO)C(=O)N[C@@H](CCCCN)C(=O)O [HLADLSK]
collision cross section (N2) ([1]; [M+H]+): 273.3 Å²

CC(=O)NC1C(OC2C(O)C(CO)OC(OC3C(CO)OC(O)C(O)C3O)C2O)OC(CO)C(O)C1OC1OC(CO)C(O)C(O)C1O (stereo not drawn) [HexNAc-(Hex)3]
collision cross section (N2) ([1]; [M+K]+): 248.2 Å² | collision cross section (N2) ([1]; [M+Na-H2O]+): 244.9 Å² | collision cross section (N2) ([1]; [M+Na]+): 244 Å²

CC(=O)NC1C(OC2C(O)C(CO)OC(OC(C(O)CO)C(OC3OC(C)C(O)C(O)C3O)C(O)C=O)C2O)OC(CO)C(O)C1OC1OC(CO)C(O)C(O)C1O (stereo not drawn) [HexNAc-Fuc-(Hex)3]
collision cross section (N2) ([1]; [M+Na-H2O]+): 262 Å² and 263.1 Å²

CCC(C)[C@H](N)C(=O)NCC(=O)N[C@@H](CC(=O)O)C(=O)N[C@@H](Cc1ccc(O)cc1)C(=O)N[C@@H](C)C(=O)NCC(=O)N[C@H](C(=O)N[C@@H](CCCCN)C(=O)O)C(C)CC (stereo partly drawn) [IGDYAGIK]
collision cross section (N2) ([1]; [M+H]+): 285.9 Å²

CC(C)C[C@H](NC(=O)[C@H](CC(C)C)NC(=O)[C@H](CCC(N)=O)NC(=O)[C@H](CC(N)=O)NC(=O)[C@@H](N)CC(C)C)C(=O)N[C@@H](CCCNC(=N)N)C(=O)O [LNQLLR]
collision cross section (N2) ([1]; [M+H]+): 275.6 Å²

CC(=O)N[C@H]1[C@H](OC2[C@@H](O)[C@H](O[C@@H]([C@H](O[C@@H]3O[C@@H](C)[C@@H](O)[C@@H](O)[C@@H]3O)[C@@H](O)C=O)[C@H](O)CO)O[C@H](CO)[C@@H]2O)O[C@H](CO)[C@@H](O[C@@H]2O[C@@H](C)[C@@H](O)[C@@H](O)[C@@H]2O)[C@@H]1O[C@@H]1O[C@H](CO)[C@H](O)[C@H](O)[C@H]1O (stereo partly drawn) [Lacto-N-Difucohexaose II]
collision cross section (N2) ([1]; [M+K]+): 305.8 Å² | collision cross section (N2) ([1]; [M+Na]+): 291.2 Å² and 306.3 Å²

OC[C@H]1O[C@H](O[C@H]2[C@H](O)[C@@H](O)[C@@H](O[C@H]3[C@H](O)[C@@H](O)[C@@H](O[C@H]4[C@H](O)[C@@H](O)[C@@H](O[C@H]5[C@H](O)[C@@H](O)[C@@H](O[C@H]6[C@H](O)[C@@H](O)[C@@H](O)O[C@@H]6CO)O[C@@H]5CO)O[C@@H]4CO)O[C@@H]3CO)O[C@@H]2CO)[C@H](O)[C@@H](O)[C@@H]1O [Maltohexaose]
collision cross section (N2) ([1]; [M+K]+): 293.3 Å² | collision cross section (N2) ([1]; [M+Na]+): 286.4 Å²

CCC(C)[C@H](NC(=O)[C@H](CC(N)=O)NC(=O)[C@H](CCC(=O)O)NC(=O)[C@H](C)NC(=O)[C@H](CC(C)C)NC(=O)[C@@H](N)CC(N)=O)C(=O)N[C@@H](CO)C(=O)N[C@@H](CCCNC(=N)N)C(=O)O (stereo partly drawn) [NLAENISR]
collision cross section (N2) ([1]; [M+H]+): 291.7 Å²

CCCCC/C=C\C/C=C\C/C=C\CCCCC(=O)O[C@H](COC(=O)CCCCCCCCCCCCC)COP(=O)([O-])OCC[N+](C)(C)C [PC(32:3)]
collision cross section (N2) ([1]; [M+K]+): 288.9 Å²

CCCCC/C=C\C/C=C\C/C=C\CCCCC(=O)O[C@H](COC(=O)CCCCCCC/C=C\CCCCC)COP(=O)([O-])OCC[N+](C)(C)C [PC(33:4)]
collision cross section (N2) ([1]; [M+K]+): 287.5 Å²

CC\C=C/C=C/C=C/C=C\CCCCCCCC(=O)O[C@H](COC(=O)CCCCCCCCCCCCCCC)COP(=O)([O-])OCC[N+](C)(C)C [PC(34:4)]
collision cross section (N2) ([1]; [M+K]+): 289 Å²

CCCCNC(=O)NS(=O)(=O)c1ccc(C)cc1 [Tolbutamide]
collision cross section (N2) [2]: 163 Å²

Cc1ccc(O)c([C@H](CCN(C(C)C)C(C)C)c2ccccc2)c1 [Tolterodine]
collision cross section (N2) [2]: 182.1 Å²

CN(C)CC1CCCCC1(O)c1cccc(O)c1 (stereo not drawn) [Tramadol-M O-desmethyl]
collision cross section (N2) [2]: 157.4 Å²

COc1cccc([C@@]2(O)CCCC[C@@H]2CN(C)C)c1 [Tramadol]
collision cross section (N2) [2]: 161.4 Å²

CCOC(=O)[C@H](CCc1ccccc1)N[C@@H](C)C(=O)N1[C@H](C(=O)O)C[C@H]2CCCC[C@@H]21 [Trandolapril]
collision cross section (N2) [2]: 203.5 Å²

NC1CC1c1ccccc1 (stereo not drawn) [Tranylcypromine]
collision cross section (N2) [2]: 127.6 Å²

Cc1nnc2n1-c1ccc(Cl)cc1C(c1ccccc1Cl)=NC2 [Triazolam]
collision cross section (N2) [2]: 172.4 Å²

CC(C)(C)NCC(O)c1ccccc1Cl (stereo not drawn) [Tulobuterol]
collision cross section (N2) [2]: 150.5 Å²

CCCc1nc(C)c2c(=O)nc(-c3cc(S(=O)(=O)N4CCN(CC)CC4)ccc3OCC)[nH]n12 [Vardenafil]
collision cross section (N2) [2]: 225.8 Å²

COc1ccc(C(CN(C)C)C2(O)CCCCC2)cc1 (stereo not drawn) [Venlafaxine]
collision cross section (N2) [2]: 171.6 Å²

COc1ccc(CCN(C)CCCC(C#N)(c2ccc(OC)c(OC)c2)C(C)C)cc1OC (stereo not drawn) [Verapamil]
collision cross section (N2) [2]: 210.2 Å²

CC(=O)CC(c1ccccc1)c1c(O)c2ccccc2oc1=O (stereo not drawn) [Warfarin]
collision cross section (N2) [2]: 166.8 Å²

CCN(C(C)=O)c1cccc(-c2ccnc3c(C#N)cnn23)c1 [Zaleplon]
collision cross section (N2) [2]: 173.5 Å²

Cc1nn(C)c2c1C(c1ccccc1F)=NCC(=O)N2C [Zolazepam]
collision cross section (N2) [2]: 162.3 Å²

CN(C)CCc1c[nH]c2ccc(C[C@H]3COC(=O)N3)cc12 [Zolmitriptan]
collision cross section (N2) [2]: 160.6 Å²

Cc1ccc(-c2nc3ccc(C(=O)O)cn3c2CC(=O)N(C)C)cc1 [Zolpidem-M 2]
collision cross section (N2) [2]: 181.4 Å²

Cc1ccc(-c2nc3ccc(C)cn3c2CC(=O)N(C)C)cc1 [Zolpidem]
collision cross section (N2) [2]: 177.2 Å²

OCCN1CCN(CC/C=C2/c3ccccc3Sc3ccc(Cl)cc32)CC1 [Zuclopenthixol]
collision cross section (N2) [2]: 194 Å²

Clc1cccc(N2CCNCC2)c1 [mCPP]
collision cross section (N2) [2]: 144.3 Å²
